Reference: ChEMBL document CHEMBL1201862, “PubChem BioAssay data set” (2004)
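96-well plates; 48 h exposure; 5 concentrations. Endpoints by linear interpolation between flanking doses. Not reached: highest tested concentration assigned. GI50: concentration for 50% inhibition of growth.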 The source made the active and inactive calls. No stated cut-off is given here; in the data, active = GI50 up to about 1.1 µM and inactive = higher.

Legend:
Assay in all cases: inhibition of tumour cell growth, NCI panel, 48 h
[1] = test system: DU-145
[2] = test system: SK-MEL-28
[3] = test system: U-251
[4] = test system: SN12C
[5] = test system: A549
[6] = test system: HCT-15
[7] = test system: MDA-MB-435
[8] = test system: CCRF-CEM
[9] = test system: Malme-3M
[10] = test system: NCI-H522
[11] = test system: NCI-H23
[12] = test system: HT-29
[13] = test system: IGROV-1
[14] = test system: UACC-257
[15] = test system: UACC-62
[16] = test system: SW-620
[17] = test system: MOLT-4

## OCCCNCc1ccccn1
[1]
  GI50: > 100 µM (inactive)
[2]
  GI50: > 100 µM (inactive)
[3]
  GI50: > 100 µM (inactive)
[4]
  GI50: > 100 µM (inactive)
[5]
  GI50: > 100 µM (inactive)
[6]
  GI50: > 100 µM
[7]
  GI50: > 100 µM (inactive)
[8]
  GI50: > 100 µM (inactive)
[9]
  GI50: > 100 µM (inactive)
[10]
  GI50: > 100 µM (inactive)
[11]
  GI50: > 100 µM (inactive)
[12]
  GI50: > 100 µM (inactive)
[13]
  GI50: > 100 µM (inactive)
[14]
  GI50: > 100 µM (inactive)
[15]
  GI50: > 100 µM (inactive)
[16]
  GI50: > 100 µM (inactive)
[17]
  GI50: > 100 µM (inactive)

## N#CC[N+]1(Cc2ccccn2)CCCC1.O=S(=O)([O-])c1ccccc1
[1]
  GI50: > 100 µM (inactive)
[2]
  GI50: > 100 µM (inactive)
[3]
  GI50: > 100 µM (inactive)
[4]
  GI50: > 100 µM (inactive)
[5]
  GI50: > 100 µM (inactive)
[6]
  GI50: > 100 µM
[7]
  GI50: > 100 µM (inactive)
[9]
  GI50: > 100 µM (inactive)
[10]
  GI50: > 100 µM (inactive)
[11]
  GI50: > 100 µM (inactive)
[12]
  GI50: > 100 µM (inactive)
[13]
  GI50: > 100 µM (inactive)
[14]
  GI50: > 100 µM (inactive)
[15]
  GI50: > 100 µM (inactive)
[16]
  GI50: > 100 µM (inactive)
[17]
  GI50: 7.01 µM (inactive)

## O=C(c1no[n+]([O-])c1C(=O)c1csc2ccccc12)c1csc2ccccc12
[1]
  GI50: 17.9 µM (inactive)
[2]
  GI50: 4.09 µM (inactive)
[3]
  GI50: 9.95 µM (inactive)
[4]
  GI50: 4.37 µM (inactive)
[5]
  GI50: 10 µM (inactive)
[6]
  GI50: 4.57 µM
[7]
  GI50: 8.93 µM (inactive)
[8]
  GI50: 0.0834 µM (active)
[9]
  GI50: 3.19 µM (inactive)
[10]
  GI50: 0.652 µM (active)
[11]
  GI50: 14.1 µM (inactive)
[12]
  GI50: 3.64 µM (inactive)
[13]
  GI50: 1.4 µM (inactive)
[14]
  GI50: 4.92 µM (inactive)
[15]
  GI50: 10.9 µM (inactive)
[16]
  GI50: 2.21 µM (inactive)
[17]
  GI50: 0.678 µM (active)

## CC(C)c1ccc(/C=C2/C=C(c3ccc4ccccc4c3)OC2=O)cc1
[1]
  GI50: > 100 µM (inactive)
[2]
  GI50: 55.5 µM (inactive)
[3]
  GI50: 39.6 µM (inactive)
[4]
  GI50: 57.1 µM (inactive)
[5]
  GI50: > 89.7 µM (inactive)
[6]
  GI50: 72.3 µM
[7]
  GI50: 41.3 µM (inactive)
[8]
  GI50: 2.56 µM (inactive)
[9]
  GI50: 15.8 µM (inactive)
[10]
  GI50: 10.5 µM (inactive)
[11]
  GI50: 38.7 µM (inactive)
[12]
  GI50: > 95.3 µM (inactive)
[13]
  GI50: > 85.9 µM (inactive)
[14]
  GI50: 21 µM (inactive)
[15]
  GI50: 35.4 µM (inactive)
[16]
  GI50: > 86.5 µM (inactive)
[17]
  GI50: 21.2 µM (inactive)

## CSC1=C(C(=O)Nc2ccc(C)cc2)C(N)=NC1=O
[1]
  GI50: > 100 µM (inactive)
[2]
  GI50: > 100 µM (inactive)
[3]
  GI50: > 100 µM (inactive)
[6]
  GI50: > 100 µM
[7]
  GI50: > 100 µM (inactive)
[8]
  GI50: > 100 µM (inactive)
[11]
  GI50: > 100 µM (inactive)
[12]
  GI50: > 100 µM (inactive)
[13]
  GI50: > 100 µM (inactive)
[14]
  GI50: > 100 µM (inactive)
[15]
  GI50: > 100 µM (inactive)
[16]
  GI50: > 100 µM (inactive)
[17]
  GI50: > 100 µM (inactive)

## O=C(c1ccccc1)c1ccc(N2C(=O)/C(=C/c3ccccc3S)N=C2c2ccccc2)c(N2C(=O)/C(=C/c3ccccc3S)N=C2c2ccccc2)c1
[1]
  GI50: 59 µM (inactive)
[2]
  GI50: > 100 µM (inactive)
[3]
  GI50: 25.2 µM (inactive)
[4]
  GI50: > 100 µM (inactive)
[5]
  GI50: 33.2 µM (inactive)
[6]
  GI50: 53.3 µM
[7]
  GI50: 19.6 µM (inactive)
[8]
  GI50: 22.2 µM (inactive)
[12]
  GI50: 86.5 µM (inactive)
[13]
  GI50: 46.9 µM (inactive)
[14]
  GI50: > 100 µM (inactive)
[15]
  GI50: 49.4 µM (inactive)
[16]
  GI50: 43.2 µM (inactive)
[17]
  GI50: 21.4 µM (inactive)

## O=[N+]([O-])c1cccc([N+](=O)[O-])c1S(=O)(=O)c1ccccc1
[1]
  GI50: 6.05 µM (inactive)
[2]
  GI50: 4.16 µM (inactive)
[3]
  GI50: 8.95 µM (inactive)
[4]
  GI50: 3.83 µM (inactive)
[5]
  GI50: 19.8 µM (inactive)
[6]
  GI50: 1.92 µM
[7]
  GI50: 3.61 µM (inactive)
[8]
  GI50: < 0.01 µM (active)
[9]
  GI50: 2.28 µM (inactive)
[11]
  GI50: 21.3 µM (inactive)
[12]
  GI50: 7.67 µM (inactive)
[13]
  GI50: 1.89 µM (inactive)
[14]
  GI50: 13.2 µM (inactive)
[16]
  GI50: 2.55 µM (inactive)
[17]
  GI50: 3.38 µM (inactive)

## C/C(=C/CNc1ncnc2c1ncn2CCC#N)CO
[1]
  GI50: > 100 µM (inactive)
[2]
  GI50: > 100 µM (inactive)
[4]
  GI50: > 100 µM (inactive)
[5]
  GI50: > 100 µM (inactive)
[7]
  GI50: > 100 µM (inactive)
[8]
  GI50: > 100 µM (inactive)
[9]
  GI50: > 100 µM (inactive)
[10]
  GI50: > 100 µM (inactive)
[11]
  GI50: > 100 µM (inactive)
[12]
  GI50: > 100 µM (inactive)
[13]
  GI50: > 100 µM (inactive)
[14]
  GI50: > 100 µM (inactive)
[15]
  GI50: > 100 µM (inactive)
[16]
  GI50: > 100 µM (inactive)
[17]
  GI50: > 100 µM (inactive)

## CC1(C)OC2[C@@H](CO[C@@]3([C@H]4OC(C)(C)O[C@@H]4CO)OC(C)(C)O[C@@H]23)O1 (stereo not given in full)
[1]
  GI50: > 100 µM (inactive)
[2]
  GI50: > 100 µM (inactive)
[3]
  GI50: > 100 µM (inactive)
[4]
  GI50: > 100 µM (inactive)
[5]
  GI50: > 100 µM (inactive)
[6]
  GI50: > 100 µM
[7]
  GI50: > 100 µM (inactive)
[8]
  GI50: > 100 µM (inactive)
[9]
  GI50: > 100 µM (inactive)
[10]
  GI50: > 100 µM (inactive)
[11]
  GI50: > 100 µM (inactive)
[12]
  GI50: > 100 µM (inactive)
[13]
  GI50: > 100 µM (inactive)
[15]
  GI50: > 100 µM (inactive)
[16]
  GI50: > 100 µM (inactive)
[17]
  GI50: > 100 µM (inactive)
